In patent US20140147411A1, “METHODS OF TREATING CANCER AND TESTING MUTATION ZYGOSITY RELATED THERETO” (U.S. GOVERNMENT represented by the UNITED STATES DEPARTMENT …, priority 2012, published 2014):

What was measured:
[1] = test system: phospho-ERK (Thr 202/Tyr 204); assay: ERK phosphorylation by western blot in A375 cells; format: cell-based; conditions: 10 μM PLX4720, western blot, 24 hours
Experimental: A representative western blot is shown. A375 cells were pre-treated with vehicle (DMSO) or 10 μM of PLX4720 60 minutes prior to the addition of IFN-γ (100 U/ml). Whole cell lysates were prepared 24 hours later and levels of phospho-ERK (Thr 202/Tyr 204) and total ERK protein were analyzed by western blot. […] The error bars represent the SEM.
A representative western blot is shown. […] Cell lysates were prepared 72 hours later and levels of total ERK and phospho-ERK (Thr 202/Tyr 204) protein analyzed by western blot. […] GAPDH levels are shown as a loading control. […] Control cells were treated only with vehicle (DMSO).

A375 melanoma cells = assay: Cell surface MHC class I, B2M and MHC class II by flow cytometry in A375 cells after interferon
Experimental: A representative western blot is shown. A375 cells were pre-treated with vehicle (DMSO) or 10 μM of PLX4720 60 minutes prior to the addition of IFN-γ (100 U/ml). Whole cell lysates were prepared 24 hours later and levels of phospho-ERK (Thr 202/Tyr 204) and total ERK protein were analyzed by western blot. B, A representative flow cytometry histogram is shown. A375 cells were pre-treated with vehicle (DMSO, black line, unfilled) or 10 μM PLX4720 (black dotted line) for 60 minutes prior to the addition of IFN-γ (10 U/ml). Control cells were left untreated (gray filled). Cell surface MHC class I was analyzed using flow cytometry 72 hours later using an antibody that recognizes a shared epitope on HLA-A, B and C molecules. Cells stained with an isotype control antibody are shown (black filled). C, Averaged mean fluorescence intensity (MFI) from three independent flow cytometry experiments is shown (y-axis) and treatments are indicated along the x-axis. The error bars represent the SEM. (*, p<0.05; two-tailed paired Student's t test, as compared to cells treated with IFN-γ and pre-treated with DMSO).
A representative western blot is shown. […] Cell lysates were prepared 72 hours later and levels of total ERK and phospho-ERK (Thr 202/Tyr 204) protein analyzed by western blot. […] Cell surface MHC class I (HLA-A, B, C), B2M, and MHC class II (HLA-DR) levels were analyzed 72 hours later using flow cytometry. Values represent the average mean fluorescence intensity (MFI) for three independent experiments and error bars represent the SEM. […] GAPDH levels are shown as a loading control. D, Induction of HLA-A, HLA-DR, CIITA and NLRC5 mRNA in A375 cells. […] Control cells were treated only with vehicle (DMSO). Steady state mRNA levels were measured using quantitative real-time RT-PCR 72 hours later and are expressed as fold over vehicle (DMSO) treated cells. Error bars represent SEM from at least 3 independent experiments. (*, p<0.05, **, p<0.01, 2-tailed paired Student's t test, as compared to cells treated with IFN-γ and pre-treated with DMSO)
Error bars represent the SEM. […] Flow cytometry was used to select transfected (GFP positive) and non-transfected (GFP negative) cells and MHC class I levels were measured on these two cell populations. Average values from three independent experiments are shown. MHC class I levels are expressed as the % of MHC class I on control cells (cells non-transfected using the empty vector plasmid). […] Cells stained with an isotype control antibody are shown in black filled.

CIITA mRNA = conditions: SKMEL-28 cells, vemurafenib 0.5 μM, IFN-γ 20 U/ml
Experimental: (§1) Cell surface MHC class I (HLA-A, B and C, top panels) and MHC class II (HLA-DR, lower panels) levels were measured 72 hours later using flow cytometry. […] Fold induction of cell surface MHC class I was calculated by dividing averaged MFI values for cells treated as indicated along the x-axis by averaged MFI values of cells treated with vehicle (DMSO) alone. Fold inductions for heterozygous cell lines (MALME-3M, SKMEL-3, and SKMEL-5) were averaged together (gray bars) as were the fold inductions for three homozygous (white bars) cell lines (A375, HT-144, and SKMEL-28). […] The DMSO-treated cells (gray diamonds) from part A are compared to those treated with BEZ235 (0.5 μM, black squares). MHC class I and class II levels were assessed as in part A.

SKMEL-3 cells = assay: Cell surface MHC by flow cytometry in SKMEL-3 cells after IFN-γ; conditions: SKMEL3 cells (heterozygous for BRAFV600E), vemurafenib 0.5 μM, 72 hours
Experimental: as §1

SKMEL-5 cells = assay: Cell surface MHC by flow cytometry in SKMEL-5 cells after IFN-γ; conditions: SKMEL5 cells (heterozygous for BRAFV600E), vemurafenib 0.5 μM, 72 hours
Experimental: as §1

MALME-3M cells = assay: Cell surface MHC by flow cytometry in MALME-3M cells after IFN-γ; conditions: MALME-3M cells (heterozygous for BRAFV600E), vemurafenib 0.5 μM, 72 hours
Experimental: as §1

AKT (serine 473) = assay: AKT phosphorylation in the melanoma cell model system; format: cell-based; conditions: BEZ235
melanoma cell lines = assay: MHC induction by IFN-γ with PI3K/mTOR inhibitor in melanoma cell lines, flow cytometry; conditions: BEZ235 0.5 μM, MHC class I and class II, melanoma cell lines of FIG. 4
Experimental: Fold induction of cell surface MHC class I was calculated by dividing averaged MFI values for cells treated as indicated along the x-axis by averaged MFI values of cells treated with vehicle (DMSO) alone. […] MHC class I and class II levels were assessed as in part A.
BEZ235 a dual PI3K/mammalian target of rapamycin inhibitor was used.

[2] = test system: SKMEL-2 (BRAF codon 600 wild-type) cells; assay: Cell surface MHC by flow cytometry in SKMEL-2 cells after IFN-γ
Experimental: Values represent the average mean fluorescence intensity (MFI) for three independent experiments and error bars represent the SEM. […] Control cells were treated only with vehicle (DMSO). […] Error bars represent SEM from at least 3 independent experiments.

[3] = test system: BRAFV600E homozygous cell lines (A375, HT-144, and SKMEL-28); assay: Fold MHC class I induction averaged over BRAFV600E homozygous cell lines; conditions: MFI over vehicle (DMSO) alone
Experimental: The y-axis represents average MFI for at least three independent experiments except those for MeWo and SKMEL-5 which are the average of two independent experiments. […] Fold induction of cell surface MHC class I was calculated by dividing averaged MFI values for cells treated as indicated along the x-axis by averaged MFI values of cells treated with vehicle (DMSO) alone. […] MHC class I and class II levels were assessed as in part A.

[4] = test system: BRAFV600E heterozygous cell lines (MALME-3M, SKMEL-3, and SKMEL-5); assay: Fold MHC class I induction averaged over BRAFV600E heterozygous cell lines; conditions: MFI over vehicle (DMSO) alone
Experimental: as §1

[5] = A375 cells, sorafenib 10 μM prior to IFN-γ 2000 U/ml, not statistically significant (ANOVA)

CCCS(=O)(=O)Nc1ccc(F)c(C(=O)c2c[nH]c3ncc(Cl)cc23)c1F [PLX4720]
levels of ERK phosphorylation [1]: reduced levels of ERK phosphorylation
induction of MHCI molecules by IFN-γ (A375 melanoma cells; A375 cells, 10 μM PLX4720 60 minutes prior to IFN-γ (10 U/ml), 72 hours): enhanced the induction of MHCI molecules by IFN-γ

CCCS(=O)(=O)Nc1ccc(F)c(C(=O)c2c[nH]c3ncc(-c4ccc(Cl)cc4)cc23)c1F [vemurafenib]
time after the addition of IFN-γ at which the effect on CIITA mRNA was most pronounced (CIITA mRNA): 48 h
induction of MHCI molecules by IFN-γ (SKMEL-3 cells): no effect
induction of MHCII molecules by IFN-γ (SKMEL-3 cells): no effect
induction of MHCI molecules by IFN-γ (SKMEL-5 cells): no effect
induction of MHCII molecules by IFN-γ (SKMEL-5 cells): no effect
induction of MHCI molecules by IFN-γ (MALME-3M cells): no effect
induction of MHCII molecules by IFN-γ (MALME-3M cells): no effect

CNC(=O)c1cc(Oc2ccc(NC(=O)Nc3ccc(Cl)c(C(F)(F)F)c3)cc2)ccn1 [sorafenib]
induction of MHCI molecules by IFN-γ (A375 melanoma cells; [5]): enhanced the induction of MHCI molecules
induction of the MHCII molecule HLA-DR by IFN-γ (A375 melanoma cells; [5]): decreased the induction of the MHCII molecule HLA-DR

Cn1c(=O)n(-c2ccc(C(C)(C)C#N)cc2)c2c3cc(-c4cnc5ccccc5c4)ccc3ncc21 [BEZ235]
phosphorylation of AKT (serine 473) (AKT (serine 473)): reduced the phosphorylation of AKT (serine 473)
induction of MHC molecules by IFN-γ (melanoma cell lines): did not enhance the induction of MHC molecules by IFN-γ, rather, it attenuated MHC induction in some of the cell lines examined

B1: IFN-γ: a type II interferon, cytokine, potent inducer of MHC expression (protein, UniProt P01579 24-161, looked up)
Interferon gamma: QDPYVKEAENLKKYFNAGHSDVADNGTLFLGILKNWKEESDRKIMQSQIVSFYFKLFKNFKDDQSIQKSVETIKEDMNVKFFNSNKKKRDDFEKLTNYSVTDLNVQRKAIHELIQVMAELSPAAKTGKRKRSQMLFRG
cell surface MHCI, MHCII and B2M protein levels [2]: increases in cell surface MHCI, MHCII and B2M protein levels
fold increase of MHCI levels by IFN-γ [3]: around four
fold increase of MHCI levels by IFN-γ [4]: around four
MHCI cell surface expression (A375 melanoma cells; A375 cells treated with IFN-γ alone, flow cytometry): lead to an induction of MHCI cell surface expression
